{"source": "ChEMBL document CHEMBL1201862", "about": "“PubChem BioAssay data set” (2004)", "key": {"[1]": {"molecular_target": "T1, Polyadenylate-binding protein 1 (Homo sapiens, UniProt P11940)", "T1 sequence (P11940 whole entry)": "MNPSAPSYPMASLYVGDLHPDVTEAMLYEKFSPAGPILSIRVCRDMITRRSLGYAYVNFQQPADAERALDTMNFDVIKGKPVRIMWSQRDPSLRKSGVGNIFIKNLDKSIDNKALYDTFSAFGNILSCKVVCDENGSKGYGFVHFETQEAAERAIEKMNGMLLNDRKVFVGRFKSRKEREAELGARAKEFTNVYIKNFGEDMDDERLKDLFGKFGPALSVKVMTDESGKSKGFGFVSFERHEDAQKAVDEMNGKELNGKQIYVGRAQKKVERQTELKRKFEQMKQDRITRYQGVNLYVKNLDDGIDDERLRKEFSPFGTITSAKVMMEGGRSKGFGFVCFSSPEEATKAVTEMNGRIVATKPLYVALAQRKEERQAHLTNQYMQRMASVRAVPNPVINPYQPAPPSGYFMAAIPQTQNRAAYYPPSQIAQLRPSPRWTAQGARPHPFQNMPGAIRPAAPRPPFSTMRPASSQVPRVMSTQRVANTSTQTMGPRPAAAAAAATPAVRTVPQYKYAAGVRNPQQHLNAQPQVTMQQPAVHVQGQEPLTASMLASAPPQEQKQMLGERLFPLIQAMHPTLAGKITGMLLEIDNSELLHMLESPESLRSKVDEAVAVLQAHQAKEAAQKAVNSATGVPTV", "assay": "MLLE binding blockers, Cy5 peptide tracer – biochemical, fluorescence polarization, Cy5-PAM2 peptide, secondary, miRNA deadenylation inhibitor project, dose response (AID 602260)", "format": "functional", "settings": "read-out: IC50_Mean"}, "[2]": {"molecular_target": "T1, Polyadenylate-binding protein 1", "assay": "MLLE domain peptide-binding blockers, IC50 – biochemical, fluorescence polarization, FITC-PAM2 peptide, dose response (AID 602259)", "format": "functional", "settings": "read-out: IC50_Mean"}, "[3]": {"assay": "luciferase reporter signal suppression in cells – H4 neuroglioma cells, luminescence, dose response (AID 1990)", "format": "functional, cell-based"}, "[4]": {"assay": "Luminescence Cell-Based Dose Response HTS to Identify Inhibitors of 5'UTR Stem-Loop Driven Prion Protein mRNA Translation in H4 Neuroglioblastoma Cells. [Related pubchem assays: 1827 (Project Summary), 1813 (Primary HTS)]", "format": "functional"}, "[5]": {"assay": "alpha-synuclein stem-loop luciferase translation blockers – H4 neuroglioma cells, luminescence, confirmation (AID 1988)", "format": "functional, cell-based"}, "[6]": {"assay": "Trypanosoma cruzi growth suppression in host cells – NIH3T3 host cells, beta-gal luminescence, confirmation (AID 2044);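 also: intracellular parasites grown in NIH/3T3 mouse fibroblasts as host cells; luminescent beta-galactosidase reporter signal from transgenic T. cruzi replicating inside host cells; inhibitors lower the luminescence signal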", "format": "functional, cell-based"}, "[7]": {"assay": "NIH3T3 cell viability loss – ATP luminescence, mouse fibroblasts, counter-screen, dose response (AID 2010);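 also: cells exposed to compound for about 90 hours before reading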", "format": "functional, cell-based"}, "INS1": {"test_system": "INS1", "assay": "INS-1E survival protection against cytokine death – cell-based, luminescence, retest, dose response (AID 449756);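 also: cell death triggered by IL-1 beta plus TNF-alpha plus IFN-gamma mixture; protective hits raise ATP signal compared with cytokine alone wells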", "format": "functional", "settings": "Rattus norvegicus"}, "Protein skinhead-1": {"molecular_target": "T2, Protein skinhead-1 (Caenorhabditis elegans, UniProt P34707)", "T2 sequence (P34707 whole entry)": "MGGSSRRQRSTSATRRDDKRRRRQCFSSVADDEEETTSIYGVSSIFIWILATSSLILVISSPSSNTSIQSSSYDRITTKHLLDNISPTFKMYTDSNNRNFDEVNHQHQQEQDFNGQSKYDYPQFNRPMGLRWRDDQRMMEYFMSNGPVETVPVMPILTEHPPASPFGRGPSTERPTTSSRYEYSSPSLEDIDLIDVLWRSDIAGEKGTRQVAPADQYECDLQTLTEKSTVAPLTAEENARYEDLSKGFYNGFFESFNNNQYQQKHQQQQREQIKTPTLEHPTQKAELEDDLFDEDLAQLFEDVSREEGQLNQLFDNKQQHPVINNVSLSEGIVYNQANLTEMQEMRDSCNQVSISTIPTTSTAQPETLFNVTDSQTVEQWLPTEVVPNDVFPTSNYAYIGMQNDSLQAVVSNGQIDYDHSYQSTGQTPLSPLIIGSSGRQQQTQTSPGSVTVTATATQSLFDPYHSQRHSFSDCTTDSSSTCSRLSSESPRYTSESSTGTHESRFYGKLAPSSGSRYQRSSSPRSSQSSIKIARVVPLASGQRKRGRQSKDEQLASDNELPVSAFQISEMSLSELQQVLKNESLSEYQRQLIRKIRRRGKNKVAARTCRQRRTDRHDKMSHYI", "format": "functional"}, "[8]": {"assay": "viability of PTEN-deleted HCT116 cells – cell-based, HCT116 PTEN knockout, dose response (AID 1047);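 also: cells exposed to compound for 60 hours before readout; potency for loss of cell viability measured by luminescence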", "format": "functional"}, "[9]": {"assay": "viability of HCT116 lacking mutant beta-catenin – cell-based, human colon tumor, dose response (AID 1045);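 also: cells exposed to compound for 60 hours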", "format": "functional"}, "Fatty acid synthase [10]": {"molecular_target": "T3, Fatty acid synthase (Homo sapiens, UniProt P49327)", "T3 sequence (P49327 whole entry)": "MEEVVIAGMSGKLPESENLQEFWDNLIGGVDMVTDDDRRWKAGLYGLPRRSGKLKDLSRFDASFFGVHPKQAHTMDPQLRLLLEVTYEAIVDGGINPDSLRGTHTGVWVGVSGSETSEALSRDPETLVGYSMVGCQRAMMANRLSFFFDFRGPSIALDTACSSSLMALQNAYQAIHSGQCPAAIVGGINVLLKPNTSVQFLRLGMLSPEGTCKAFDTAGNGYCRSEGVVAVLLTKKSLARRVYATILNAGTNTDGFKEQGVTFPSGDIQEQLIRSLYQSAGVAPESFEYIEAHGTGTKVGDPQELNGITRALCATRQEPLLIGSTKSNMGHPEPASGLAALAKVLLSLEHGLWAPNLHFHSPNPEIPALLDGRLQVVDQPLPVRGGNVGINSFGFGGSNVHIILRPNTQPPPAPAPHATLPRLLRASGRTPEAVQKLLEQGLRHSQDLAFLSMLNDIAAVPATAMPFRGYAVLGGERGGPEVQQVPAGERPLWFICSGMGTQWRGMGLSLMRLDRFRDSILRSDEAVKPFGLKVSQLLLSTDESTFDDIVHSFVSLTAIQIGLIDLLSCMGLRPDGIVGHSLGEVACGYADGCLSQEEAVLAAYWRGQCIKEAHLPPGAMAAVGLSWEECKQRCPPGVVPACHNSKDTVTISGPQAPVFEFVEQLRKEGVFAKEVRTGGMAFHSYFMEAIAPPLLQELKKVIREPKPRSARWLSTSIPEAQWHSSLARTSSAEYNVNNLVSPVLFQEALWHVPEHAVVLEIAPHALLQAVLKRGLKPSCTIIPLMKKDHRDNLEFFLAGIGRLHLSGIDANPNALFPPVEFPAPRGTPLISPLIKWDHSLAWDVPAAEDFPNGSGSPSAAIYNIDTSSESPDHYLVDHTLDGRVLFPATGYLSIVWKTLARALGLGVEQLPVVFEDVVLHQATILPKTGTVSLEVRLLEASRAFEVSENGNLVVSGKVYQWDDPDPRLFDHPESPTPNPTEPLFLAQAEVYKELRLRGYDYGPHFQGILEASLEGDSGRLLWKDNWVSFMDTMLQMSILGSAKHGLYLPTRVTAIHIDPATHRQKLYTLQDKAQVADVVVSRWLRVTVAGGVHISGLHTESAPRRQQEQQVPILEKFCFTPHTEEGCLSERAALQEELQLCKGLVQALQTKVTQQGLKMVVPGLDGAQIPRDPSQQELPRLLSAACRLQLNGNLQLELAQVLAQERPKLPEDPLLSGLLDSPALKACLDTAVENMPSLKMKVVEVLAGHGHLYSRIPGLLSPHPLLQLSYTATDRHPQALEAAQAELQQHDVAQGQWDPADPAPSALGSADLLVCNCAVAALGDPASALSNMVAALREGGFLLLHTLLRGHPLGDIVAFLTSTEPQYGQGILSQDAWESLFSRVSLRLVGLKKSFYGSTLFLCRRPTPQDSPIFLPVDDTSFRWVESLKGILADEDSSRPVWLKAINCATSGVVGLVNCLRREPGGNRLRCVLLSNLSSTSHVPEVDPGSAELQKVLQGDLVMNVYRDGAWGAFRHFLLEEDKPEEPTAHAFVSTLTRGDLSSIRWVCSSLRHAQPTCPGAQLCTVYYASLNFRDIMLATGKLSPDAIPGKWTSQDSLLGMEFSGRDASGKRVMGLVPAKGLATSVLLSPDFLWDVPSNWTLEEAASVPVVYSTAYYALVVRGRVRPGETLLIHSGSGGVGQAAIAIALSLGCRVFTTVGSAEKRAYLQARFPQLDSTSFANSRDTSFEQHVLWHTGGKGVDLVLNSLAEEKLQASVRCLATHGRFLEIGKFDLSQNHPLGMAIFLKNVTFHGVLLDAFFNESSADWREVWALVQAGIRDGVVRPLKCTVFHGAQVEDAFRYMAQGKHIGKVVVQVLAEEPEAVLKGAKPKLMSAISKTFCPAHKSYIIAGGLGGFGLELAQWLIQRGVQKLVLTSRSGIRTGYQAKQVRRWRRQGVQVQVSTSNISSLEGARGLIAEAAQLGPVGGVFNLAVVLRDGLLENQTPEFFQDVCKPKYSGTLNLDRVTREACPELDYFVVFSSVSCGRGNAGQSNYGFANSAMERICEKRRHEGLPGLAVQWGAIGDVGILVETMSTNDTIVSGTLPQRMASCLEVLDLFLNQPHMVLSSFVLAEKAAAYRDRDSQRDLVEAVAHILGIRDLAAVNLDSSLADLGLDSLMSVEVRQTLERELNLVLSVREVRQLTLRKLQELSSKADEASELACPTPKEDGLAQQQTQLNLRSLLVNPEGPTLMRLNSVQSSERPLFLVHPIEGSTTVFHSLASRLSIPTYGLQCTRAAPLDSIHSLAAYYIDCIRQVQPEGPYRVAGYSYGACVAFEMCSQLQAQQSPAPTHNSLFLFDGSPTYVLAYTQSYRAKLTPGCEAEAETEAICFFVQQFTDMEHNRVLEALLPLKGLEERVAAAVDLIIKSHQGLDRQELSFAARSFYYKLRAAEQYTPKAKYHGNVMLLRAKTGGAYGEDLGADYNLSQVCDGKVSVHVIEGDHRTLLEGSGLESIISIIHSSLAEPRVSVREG", "assay": "inhibition of human FAS-TE enzyme activity – biochemical, endpoint fluorescence intensity, uHTS hits, dose response (AID 624327);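 also: fluorescence from hydrolysis of an O-methyl fluorescein acyl ester substrate by the enzyme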", "format": "functional"}, "Fatty acid synthase [11]": {"molecular_target": "T3, Fatty acid synthase", "assay": "inhibition of human FAS-TE enzyme activity – biochemical, kinetic fluorescence intensity, dose response (AID 624326);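 also: rate of fluorescence rise from hydrolysis of a fluorogenic O-methyl fluorescein ester substrate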", "format": "functional"}, "[12]": {"molecular_target": "FAD-linked sulfhydryl oxidase ALR (Homo sapiens, UniProt P55789)", "sequence (P55789 whole entry)": "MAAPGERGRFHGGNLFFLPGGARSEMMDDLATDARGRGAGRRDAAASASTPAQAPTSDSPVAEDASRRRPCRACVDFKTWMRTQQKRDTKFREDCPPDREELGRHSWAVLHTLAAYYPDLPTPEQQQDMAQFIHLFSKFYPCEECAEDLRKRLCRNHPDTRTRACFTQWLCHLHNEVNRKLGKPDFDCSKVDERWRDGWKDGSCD", "assay": "ALR-catalysed DTT oxidation blockers – biochemical, H2O2 detection, luminescence, cherry-pick, dose response (AID 493248)"}, "cells": {"assay": "cells", "format": "functional"}, "[13]": {"molecular_target": "T4, Corticotropin-releasing factor receptor 2/Corticotropin-releasing factor-binding protein (Homo sapiens, UniProt P24387+Q13324)", "T4 sequence (Q13324 whole entry)": "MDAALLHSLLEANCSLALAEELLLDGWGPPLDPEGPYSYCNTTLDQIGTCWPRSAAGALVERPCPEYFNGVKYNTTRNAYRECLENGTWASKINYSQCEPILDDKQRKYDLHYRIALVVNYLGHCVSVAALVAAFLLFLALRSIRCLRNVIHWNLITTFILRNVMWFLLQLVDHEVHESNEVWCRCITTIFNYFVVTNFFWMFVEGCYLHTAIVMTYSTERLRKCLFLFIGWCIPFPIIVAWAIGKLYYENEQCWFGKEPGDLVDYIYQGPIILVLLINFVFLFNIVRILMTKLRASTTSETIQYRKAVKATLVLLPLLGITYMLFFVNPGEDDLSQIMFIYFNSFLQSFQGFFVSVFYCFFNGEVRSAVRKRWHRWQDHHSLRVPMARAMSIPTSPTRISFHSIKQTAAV", "T4 sequence (P24387 whole entry)": "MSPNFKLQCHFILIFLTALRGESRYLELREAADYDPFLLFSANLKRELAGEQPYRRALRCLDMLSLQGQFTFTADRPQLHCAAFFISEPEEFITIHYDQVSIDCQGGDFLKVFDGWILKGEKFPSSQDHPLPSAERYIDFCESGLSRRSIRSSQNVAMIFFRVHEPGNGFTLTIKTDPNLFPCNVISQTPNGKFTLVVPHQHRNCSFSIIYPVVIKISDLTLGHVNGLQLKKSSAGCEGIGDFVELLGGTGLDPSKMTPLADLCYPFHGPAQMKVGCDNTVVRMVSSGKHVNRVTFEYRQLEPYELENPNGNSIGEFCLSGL", "assay": "Dose Response confirmation of uHTS hits for small molecule antagonists of the CRF-binding protein and CRF-R2 receptor complex.", "format": "functional", "settings": "read-out: IC50_Mean"}, "[14]": {"molecular_target": "T4, Corticotropin-releasing factor receptor 2/Corticotropin-releasing factor-binding protein", "assay": "activators of CRF receptor 2 with binding protein – uHTS hits, confirmation (AID 602473)", "format": "functional", "settings": "read-out: EC50_Mean"}, "[15]": {"assay": "Luminescence Cell-Based Dose Response HTS to Identify Activators of Luciferase Translation or Activity in H4 […] Cells. [Related pubchem assays: 1829 (Project Summary), 1814 (Primary HTS)]", "format": "functional"}, "H4": {"test_system": "H4", "assay": "Luminescence Cell-Based Dose Response HTS to Identify Activators of 5'UTR Stem-Loop Driven Prion Protein mRNA Translation in H4 Neuroglioblastoma Cells. [Related pubchem assays: 1829 (Project Summary), 1814 (Primary HTS)]", "format": "functional", "settings": "Homo sapiens"}}, "note": "Activity calls are given as the source filed them."}
{"smiles": "O=C(COc1ccc(C(=S)N2CCOCC2)cc1Cl)Nc1ccccc1Cl", "values": [{"measurement": "IC50", "setting": "[1]", "value": "> 66 µM (inactive)"}, {"measurement": "IC50", "setting": "[2]", "value": "> 66 µM (inactive)"}]}
{"smiles": "COc1cc(CNC(C)c2ccccc2)cc(Br)c1OCc1ccc(F)cc1", "note": "(stereo not drawn)", "values": [{"measurement": "EC50", "setting": "[3]", "value": "19.2 µM (active)"}, {"measurement": "EC50", "setting": "[4]", "value": "> 120 µM (not active)"}, {"measurement": "EC50", "setting": "[5]", "value": "17.7 µM (active)"}, {"measurement": "EC50", "setting": "[6]", "value": "2.41 µM (active)"}, {"measurement": "EC50", "setting": "[7]", "value": "> 60 µM (not active)"}, {"measurement": "AC50", "setting": "INS1", "value": "6.99 µM (active)"}, {"measurement": "IC50", "setting": "Protein skinhead-1", "value": "7.7 µM (active)"}]}
{"smiles": "CCCOc1ccc(Cc2c(Cl)nc(SC)nc2NC)cc1", "values": [{"measurement": "AC50", "setting": "INS1", "value": "3.53 µM (active)"}]}
{"smiles": "Cc1cc(N2CCN(S(=O)(=O)c3ccc(Cl)cc3)CC2)c2ccccc2n1", "values": [{"measurement": "EC50", "setting": "[8]", "value": "26.3 µM (active)"}, {"measurement": "EC50", "setting": "[9]", "value": "24.9 µM (active)"}, {"measurement": "AC50", "setting": "INS1", "value": "6.39 µM (active)"}]}
{"smiles": "O=C(COc1ccc(Cl)cc1Cl)Nn1c(=S)[nH]c2ncccc2c1=O", "values": [{"measurement": "IC50", "setting": "[1]", "value": "> 66 µM (inactive)"}, {"measurement": "IC50", "setting": "[2]", "value": "> 66 µM (inactive)"}]}
{"smiles": "O=C(COC(=O)c1cc([N+](=O)[O-])ccc1N1CCCC1)Nc1ccccc1OC(F)F", "values": [{"measurement": "IC50", "setting": "Fatty acid synthase [10]", "value": "8.72 µM (active)"}, {"measurement": "IC50", "setting": "Fatty acid synthase [11]", "value": "9.1 µM (active)"}]}
{"smiles": "O=C(NC(=S)Nc1cc([N+](=O)[O-])ccc1O)c1cccnc1", "values": [{"measurement": "IC50", "setting": "[1]", "value": "> 66 µM (inactive)"}, {"measurement": "IC50", "setting": "[2]", "value": "> 66 µM (inactive)"}]}
{"smiles": "CSc1nccn1CC(=O)Nc1ccc(F)cc1", "values": [{"measurement": "AC50", "setting": "[12]", "value": "2.88 µM (active)"}]}
{"smiles": "O=C(Nc1nnc(-c2ccccc2Cl)o1)c1ccco1", "values": [{"measurement": "IC50", "setting": "cells", "value": "11.8 µM (active)"}]}
{"smiles": "O=S(=O)(O)c1ccc(N2N=C(c3ccccc3)CC2c2ccccc2)cc1", "note": "(stereo not drawn)", "values": [{"measurement": "AC50", "setting": "[12]", "value": "10.9 µM (active)"}]}
{"smiles": "COc1ccccc1NC(=O)CN1CCSc2ccccc21", "values": [{"measurement": "AC50", "setting": "[12]", "value": "1.32 µM (active)"}]}
{"smiles": "CCN(CC)c1ccc(NS(=O)(=O)c2cn(C)c(=O)n(C)c2=O)c(C)c1", "values": [{"measurement": "AC50", "setting": "[12]", "value": "0.789 µM (active)"}]}
{"smiles": "CN1C[C@H](C(=O)N[C@]2(C)O[C@@]3(O)[C@@H]4CCCN4C(=O)[C@H](Cc4ccccc4)N3C2=O)CC2c3cccc4[nH]cc(c34)C[C@H]21", "note": "(stereo partly drawn)", "values": [{"measurement": "IC50", "setting": "Fatty acid synthase [10]", "value": "9.27 µM (active)"}, {"measurement": "IC50", "setting": "Fatty acid synthase [11]", "value": "15.6 µM (active)"}]}
{"smiles": "COC(=O)C1CCN(C(=O)COC(=O)c2cc([N+](=O)[O-])ccc2N2CCOCC2)CC1", "values": [{"measurement": "IC50", "setting": "[13]", "value": "> 47.1 µM (inactive)"}, {"measurement": "EC50", "setting": "[14]", "value": "> 53 µM (inactive)"}, {"measurement": "IC50", "setting": "Fatty acid synthase [10]", "value": "5.73 µM (active)"}, {"measurement": "IC50", "setting": "Fatty acid synthase [11]", "value": "3.96 µM (active)"}]}
{"smiles": "CC(C)(C)c1ccc(OCCSc2nc3ccccc3n2CC(=O)O)cc1", "values": [{"measurement": "IC50", "setting": "Fatty acid synthase [10]", "value": "2.39 µM (active)"}, {"measurement": "IC50", "setting": "Fatty acid synthase [11]", "value": "2.14 µM (active)"}]}
{"smiles": "CCCc1nnc(NC(=O)c2cc3ccccc3oc2=O)s1", "values": [{"measurement": "IC50", "setting": "cells", "value": "2.83 µM (active)"}]}
{"smiles": "O=C(c1ccccc1-c1nc(-c2ccc(Cl)cc2)no1)N1CCCC1", "values": [{"measurement": "EC50", "setting": "[15]", "value": "8.33 µM (active)"}, {"measurement": "EC50", "setting": "H4", "value": "99.2 µM (active)"}]}
{"smiles": "O=C(OCc1nnc(-c2ccccc2)o1)c1cc([N+](=O)[O-])ccc1Cl", "values": [{"measurement": "IC50", "setting": "cells", "value": "11.8 µM (active)"}]}
{"smiles": "c1ccc(Cc2nnc3sc(-c4ccncc4)nn23)cc1", "values": [{"measurement": "IC50", "setting": "[1]", "value": "> 66 µM (inactive)"}, {"measurement": "IC50", "setting": "[2]", "value": "> 66 µM (inactive)"}]}
